Test systems include RXF 393 renal; CCRF-CEM leukemia; CAKI-1 renal; SW-620 colon; SF-268 CNS; SK-MEL-5 melanoma; SR leukemia; SK-OV-3 ovarian; A498 renal; MDA-MB-231 breast.
Holding throughout (experiment): DTP human tumour cell line panel, 48 h

Molecules are shown by their SMILES.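 A five-concentration, 48-hour dose response in 96-well plates underlies each endpoint, interpolated linearly between surrounding concentrations. GI50 = concentration required for 50% inhibition of growth. TGI: concentration producing complete growth inhibition.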

By GI50 is commonly meant the concentration giving 50% growth inhibition. The term TGI denotes the concentration giving total growth inhibition. On to `Clc1ccc2[nH]cc(-c3nnnn3-c3ccccc3)c2c1`, for which the GI50 in the experiment with RXF 393 renal is 32200 nM; in the experiment on CCRF-CEM leukemia, 19300 nM; with SW-620 colon it was 14900 nM; with SF-268 CNS, 53100 nM; in the experiment on SK-MEL-5 melanoma, 9970 nM; in the experiment on SR leukemia, 4400 nM. The GI50 with SK-OV-3 ovarian is greater than 44300 nM; with A498 renal it was 8390 nM; with MDA-MB-231 breast it was 33800 nM. Moreover, the TGI with RXF 393 renal is greater than 100000 nM; in the experiment on CCRF-CEM leukemia, greater than 100 µM; in the experiment with CAKI-1 renal it was 1.16 µM; with SW-620 colon it was greater than 100 µM; in the experiment with SF-268 CNS it was greater than 100 µM; with SK-MEL-5 melanoma, 28.8 µM. Moreover, the TGI was greater than 38.9 µM in the experiment on SR leukemia, greater than 75.3 µM with SK-OV-3 ovarian, 36800 nM in the experiment on A498 renal and greater than 100 µM in the experiment with MDA-MB-231 breast.

For `O=C1OCC2=C1C(c1cccc(Br)c1)c1cc3c(cc1N2CCO)CCC3` (configuration not stated), the GI50 with RXF 393 renal was 26.3 nM; in the experiment with CCRF-CEM leukemia, 148 nM; in the experiment with CAKI-1 renal it was 220 nM; in the experiment with SW-620 colon, 58.3 nM; in the experiment on SF-268 CNS, 109 nM; in the experiment with SK-MEL-5 melanoma, 48.2 nM. In addition, the 50% growth inhibitory concentration (GI50) was 185 nM in the experiment on SR leukemia, 102 nM with SK-OV-3 ovarian, 15.5 nM in the experiment on A498 renal and 191 nM with MDA-MB-231 breast. The TGI with RXF 393 renal came to 1610 nM; with CCRF-CEM leukemia, 10 µM; in the experiment on CAKI-1 renal it was 8.15 µM; in the experiment on SW-620 colon, 8.47 µM; in the experiment with SF-268 CNS, 6.47 µM; with SK-MEL-5 melanoma, 0.428 µM. Moreover, the total growth inhibition concentration (TGI) with SR leukemia was 22.2 µM; in the experiment on SK-OV-3 ovarian, 1.58 µM; in the experiment with A498 renal, 199 nM; in the experiment on MDA-MB-231 breast, 1.22 µM.

In the case of `NCCNc1c2c(c(NCCN)c3[nH]ccc13)C(=O)c1ccccc1C2=O`, the concentration for 50% growth inhibition (GI50) is 48.8 nM in the experiment with RXF 393 renal; less than 10 nM with CCRF-CEM leukemia; less than 42 nM in the experiment with CAKI-1 renal; 216 nM with SW-620 colon; 170 nM in the experiment on SF-268 CNS; 178 nM in the experiment on SK-MEL-5 melanoma. The GI50 with SR leukemia is 52.7 nM; with SK-OV-3 ovarian, 790 nM; in the experiment on A498 renal, 231 nM; in the experiment with MDA-MB-231 breast, 109 nM. Besides, the concentration for total growth inhibition (TGI) with RXF 393 renal worked out at 525 nM; in the experiment with CCRF-CEM leukemia, 0.163 µM; in the experiment on CAKI-1 renal, 0.777 µM; with SW-620 colon, 1.09 µM; in the experiment with SF-268 CNS, 0.662 µM; in the experiment on SK-MEL-5 melanoma it was 0.808 µM. Besides, the TGI in the experiment on SR leukemia was 0.334 µM; in the experiment on SK-OV-3 ovarian, 5.52 µM; in the experiment with A498 renal, 565 nM; with MDA-MB-231 breast, 0.605 µM.

On to `Nc1c(C(=O)Nc2ccncc2)sc2nc3c(cc12)CCCCCCCC3`, for which the GI50 is 938 nM in the experiment on RXF 393 renal; 1300 nM in the experiment on CCRF-CEM leukemia; 805 nM in the experiment with CAKI-1 renal; 957 nM in the experiment with SW-620 colon; 954 nM with SF-268 CNS; 831 nM in the experiment with SK-MEL-5 melanoma. Besides, the GI50 in the experiment on SR leukemia is 1620 nM; with SK-OV-3 ovarian it was 846 nM; in the experiment on A498 renal it was 871 nM; with MDA-MB-231 breast it was 899 nM. Further, the concentration for total growth inhibition (TGI) in the experiment with RXF 393 renal was 1700 nM; in the experiment with CCRF-CEM leukemia, 3.26 µM; in the experiment on CAKI-1 renal it was 1.49 µM; in the experiment on SW-620 colon, 1.88 µM; in the experiment on SF-268 CNS it was 1.74 µM; in the experiment with SK-MEL-5 melanoma it was 1.52 µM. Moreover, the total growth inhibition concentration (TGI) in the experiment with SR leukemia stood at 50 µM; in the experiment with SK-OV-3 ovarian, 1.61 µM; in the experiment with A498 renal, 1580 nM; in the experiment on MDA-MB-231 breast, 1.66 µM.

As to `Nc1nc(/C=C\c2ccc([N+](=O)[O-])s2)nc(N2CCCC2)n1`, the GI50 in the experiment on RXF 393 renal is 3990 nM; with CCRF-CEM leukemia it was 1570 nM; in the experiment on CAKI-1 renal, 7100 nM; in the experiment with SW-620 colon it was 2760 nM; in the experiment on SF-268 CNS it was 2370 nM; in the experiment on SK-MEL-5 melanoma, 9660 nM. Moreover, the GI50 with SR leukemia was 1620 nM; with SK-OV-3 ovarian it was 9250 nM; in the experiment on A498 renal it was 16600 nM; in the experiment with MDA-MB-231 breast it was 1560 nM. For the same compound, the concentration for total growth inhibition (TGI) in the experiment with RXF 393 renal is 21100 nM; in the experiment with CCRF-CEM leukemia, 5.23 µM; with CAKI-1 renal, 24.6 µM; in the experiment with SW-620 colon it was 24 µM; in the experiment on SF-268 CNS, 13.6 µM; with SK-MEL-5 melanoma, 22.5 µM. Also, the TGI in the experiment with SR leukemia was 6.49 µM; with SK-OV-3 ovarian, 30.4 µM; in the experiment on A498 renal it was 34600 nM; with MDA-MB-231 breast, 9.35 µM.

For `COc1ccc(C(=O)/C=C/c2cc(-c3cc(OC)c(OC)c(OC)c3)n[nH]2)cc1OC`, the GI50 with RXF 393 renal is 1350 nM; in the experiment with CCRF-CEM leukemia, 626 nM; in the experiment with CAKI-1 renal, 2200 nM; in the experiment on SW-620 colon, 1370 nM; in the experiment on SF-268 CNS, 1820 nM; with SK-MEL-5 melanoma, 1650 nM. In addition, the concentration for 50% growth inhibition (GI50) in the experiment with SR leukemia was 278 nM; in the experiment with SK-OV-3 ovarian, 2790 nM; in the experiment on A498 renal it was 1480 nM; with MDA-MB-231 breast, 1480 nM. Besides, the TGI in the experiment on RXF 393 renal is 2660 nM; in the experiment on CCRF-CEM leukemia, 3.93 µM; in the experiment on CAKI-1 renal it was 5.46 µM; in the experiment on SW-620 colon it was 2.99 µM; in the experiment with SF-268 CNS, 3.96 µM; in the experiment with SK-MEL-5 melanoma, 3.03 µM. The concentration for total growth inhibition (TGI) in the experiment with SR leukemia was greater than 100 µM; with SK-OV-3 ovarian it was 7.83 µM; with A498 renal, 2980 nM; in the experiment with MDA-MB-231 breast, 3.06 µM.

Regarding `Cc1c2c(C#N)nccc2c(C)c2c1c1ccccc1n2Cc1ccccc1`, the TGI with RXF 393 renal was greater than 100000 nM; in the experiment on CCRF-CEM leukemia, greater than 100 µM; with CAKI-1 renal, greater than 100 µM; in the experiment on SW-620 colon, greater than 100 µM; with SF-268 CNS, greater than 100 µM; in the experiment on SK-MEL-5 melanoma it was greater than 100 µM. The total growth inhibition concentration (TGI) in the experiment with SR leukemia, in the experiment with SK-OV-3 ovarian and with MDA-MB-231 breast was greater than 100 µM in each case.

Turning to `Oc1cccnc1[Se]`, the total growth inhibition concentration (TGI) is greater than 100000 nM in the experiment with RXF 393 renal; greater than 100 µM with CCRF-CEM leukemia; greater than 100 µM in the experiment with CAKI-1 renal; greater than 100 µM with SW-620 colon; greater than 100 µM in the experiment on SF-268 CNS; greater than 100 µM in the experiment on SK-MEL-5 melanoma. The TGI with SR leukemia, in the experiment on SK-OV-3 ovarian and with MDA-MB-231 breast was greater than 100 µM each time.

Values taken from PubChem BioAssay (NCI).
